Assay results taken from patent US8709747B2, “Biphotonic photosensitizers, nanoparticles containing the same and their use as drugs” (Centre National de la Recherche Scientifique, priority 2009, dated 2014).

How the values were obtained:
[1] = Two-photon absorption cross section; format: physicochemical; settings: for two-photon absorption cross section: at 720 nm; for λmax^TPA / σ2^max: table titled in ethanol
[2] = Quantum yield for singlet oxygen generation; format: physicochemical; settings: in toluene
[3] = Photophysical properties (absorption, emission, fluorescence) in solution or dispersion; format: physicochemical; settings: for Φf (fluorescence quantum yield): relative to quinine in 0.5 M H2SO4; for Φ / εmax / λmax^abs / λmax^em / quantum yield for fluorescence: in ethanol; for quantum yield for fluorescence: orange emission
[4] = spectral range of interest; Drobizhev et al.; cited from earlier work

Compound: CCCCC1(CCCC)c2cc(C#Cc3ccc(/C=C/c4ccc(N(CC)CCO)cc4)s3)ccc2-c2ccc(C#Cc3ccc(/C=C/c4ccc(N(CC)CCO)cc4)s3)cc21 [Photosensitizer 6a]
- two-photon absorption cross section [1]: 1340 GM
- λmax^TPA [1]: 730 nm
- σ2^max [1]: 1204 GM
- quantum yield for singulet oxygen generation [2]: 22%
- Stokes shift ([3]; AcOEt): 4605 cm⁻¹
- knr (non-radiative decay rate) ([3]; AcOEt): 0.34 10^9 s^−1
- kr (radiative decay rate) ([3]; AcOEt): 0.36 10^9 s^−1
- r (fluorescence anisotropy) ([3]; AcOEt): 0.12
- λabs ([3]; AcOEt): 435 nm
- λem ([3]; AcOEt): 544 nm
- τ ([3]; AcOEt): 1.42 ns
- τo (radiative lifetime) ([3]; AcOEt): 2.77 ns
- Φf (fluorescence quantum yield) ([3]; AcOEt): 0.51
- Stokes shift ([3]; Acetone): 5950 cm⁻¹
- knr (non-radiative decay rate) ([3]; Acetone): 0.89 10^9 s^−1
- kr (radiative decay rate) ([3]; Acetone): 0.25 10^9 s^−1
- r (fluorescence anisotropy) ([3]; Acetone): 0.13
- λabs ([3]; Acetone): 437.5 nm
- λem ([3]; Acetone): 591.5 nm
- τ ([3]; Acetone): 0.88 ns
- τo (radiative lifetime) ([3]; Acetone): 4.02 ns
- Φf (fluorescence quantum yield) ([3]; Acetone): 0.22
- Stokes shift ([3]; Bu2O): 2700 cm⁻¹
- knr (non-radiative decay rate) ([3]; Bu2O): 0.45 10^9 s^−1
- kr (radiative decay rate) ([3]; Bu2O): 0.56 10^9 s^−1
- r (fluorescence anisotropy) ([3]; Bu2O): 0.19
- λabs ([3]; Bu2O): 433.5 nm
- λem ([3]; Bu2O): 491 nm
- τ ([3]; Bu2O): 0.99 ns
- τo (radiative lifetime) ([3]; Bu2O): 1.79 ns
- Φf (fluorescence quantum yield) ([3]; Bu2O): 0.55
- Stokes shift ([3]; CH3CN): 6355 cm⁻¹
- knr (non-radiative decay rate) ([3]; CH3CN): 0.92 10^9 s^−1
- kr (radiative decay rate) ([3]; CH3CN): 0.05 10^9 s^−1
- r (fluorescence anisotropy) ([3]; CH3CN): 0.21
- λabs ([3]; CH3CN): 436.5 nm
- λem ([3]; CH3CN): 604 nm
- τ ([3]; CH3CN): 1.03 ns
- τo (radiative lifetime) ([3]; CH3CN): 19.99 ns
- Φf (fluorescence quantum yield) ([3]; CH3CN): 0.052
- Stokes shift ([3]; CHCl3): 4035 cm⁻¹
- knr (non-radiative decay rate) ([3]; CHCl3): 0.43 10^9 s^−1
- kr (radiative decay rate) ([3]; CHCl3): 0.39 10^9 s^−1
- r (fluorescence anisotropy) ([3]; CHCl3): 0.15
- λabs ([3]; CHCl3): 431.5 nm
- λem ([3]; CHCl3): 522.5 nm
- τ ([3]; CHCl3): 1.22 ns
- τo (radiative lifetime) ([3]; CHCl3): 2.54 ns
- Φf (fluorescence quantum yield) ([3]; CHCl3): 0.48
- Stokes shift ([3]; DCM): 4870 cm⁻¹
- knr (non-radiative decay rate) ([3]; DCM): 0.27 10^9 s^−1
- kr (radiative decay rate) ([3]; DCM): 0.42 10^9 s^−1
- r (fluorescence anisotropy) ([3]; DCM): 0.10
- λabs ([3]; DCM): 433.5 nm
- λem ([3]; DCM): 549.5 nm
- τ ([3]; DCM): 1.43 ns
- τo (radiative lifetime) ([3]; DCM): 2.35 ns
- Φf (fluorescence quantum yield) ([3]; DCM): 0.61
- Stokes shift ([3]; DMSO): 6090 cm⁻¹
- knr (non-radiative decay rate) ([3]; DMSO): 1.94 10^9 s^−1
- kr (radiative decay rate) ([3]; DMSO): 0.10 10^9 s^−1
- r (fluorescence anisotropy) ([3]; DMSO): 0.28
- λabs ([3]; DMSO): 448.5 nm
- λem ([3]; DMSO): 617 nm
- τ ([3]; DMSO): 0.49 ns
- τo (radiative lifetime) ([3]; DMSO): 9.7 ns
- Φf (fluorescence quantum yield) ([3]; DMSO): 0.051
- Stokes shift ([3]; THF): 4865 cm⁻¹
- knr (non-radiative decay rate) ([3]; THF): 0.32 10^9 s^−1
- kr (radiative decay rate) ([3]; THF): 0.34 10^9 s^−1
- r (fluorescence anisotropy) ([3]; THF): 0.12
- λabs ([3]; THF): 437 nm
- λem ([3]; THF): 555 nm
- τ ([3]; THF): 1.51 ns
- τo (radiative lifetime) ([3]; THF): 2.93 ns
- Φf (fluorescence quantum yield) ([3]; THF): 0.51
- Stokes shift ([3]; Toluene): 2650 cm⁻¹
- knr (non-radiative decay rate) ([3]; Toluene): 0.56 10^9 s^−1
- kr (radiative decay rate) ([3]; Toluene): 0.52 10^9 s^−1
- r (fluorescence anisotropy) ([3]; Toluene): 0.16
- λabs ([3]; Toluene): 436 nm
- λem ([3]; Toluene): 493 nm
- τ ([3]; Toluene): 0.93 ns
- τo (radiative lifetime) ([3]; Toluene): 1.94 ns
- Φf (fluorescence quantum yield) ([3]; Toluene): 0.48
- Φ [3]: 0.65
- εmax [3]: 1.04 10^5 M^−1cm^−1
- λmax^abs [3]: 432 nm
- λmax^em [3]: 561 nm
- quantum yield for fluorescence [3]: 65%

Compound: CCN(CCO)c1ccc(/C=C/c2ccc(C#Cc3ccc4c(c3)C(CCOCCOCCOC)(CCOCCOCCOC)c3cc(C#Cc5ccc(/C=C/c6ccc(N(CC)CCO)cc6)s5)ccc3-4)s2)cc1 [Photosensitizer 6b]
- two-photon absorption cross section [1]: 1530 GM
- λmax^TPA [1]: 730 nm
- σ2^max [1]: 1530 GM
- quantum yield for singulet oxygen generation [2]: 22%
- Φ [3]: 0.33
- εmax [3]: 0.98 10^5 M^−1cm^−1
- λmax^abs [3]: 434 nm
- λmax^em [3]: 575 nm
- quantum yield for fluorescence [3]: 65%

Compound: C1=Cc2nc1c(-c1ccccc1)c1ccc([nH]1)c(-c1ccccc1)c1nc(c(-c3ccccc3)c3ccc([nH]3)c2-c2ccccc2)C=C1 [tetraphenylporphine]
- two-photon absorption (TPA) cross-section [4]: 15 GM
